Laboratory results: patent US20190203240A1, “METHODS FOR THE PRODUCTION OF RHAMNOSYLATED FLAVONOIDS” (Universitaet Hamburg, priority 2016, published 2019)

What was measured:
Type in all cases: cell-based
[1] = system: NF-κB; assay: NF-κB activity in NIH3T3-KBF-Luc cells stimulated with TNFα (luciferase); settings: +30 ng/ml TNFα
Description: NIH3T3-KBF-Luc cells were stably transfected with the KBF-Luc plasmid (Sancho (2003) Mol Pharmacol 63:429-438), which contains three copies of NF-κB binding site (from major histocompatibility complex promoter), fused to a minimal simian virus 40 promoter driving the luciferase gene. Cells (1×10^4 for NIH3T3-KBF-Luc) were seeded the day before the assay on 96-well plate. Then the cells were treated with the test substances for 15 min and then stimulated with 30 ng/ml of TNFα. After 6 h, the cells were washed twice with PBS and lysed in 50 μl lysis buffer containing 25 mM Tris-phosphate (pH 7.8), 8 mM MgCl2, 1 mM DTT, 1% Triton X-100, and 7% glycerol during 15 min at RT in a horizontal shaker. Luciferase activity was measured using a GloMax 96 microplate luminometer (Promega) following the instructions of the luciferase assay kit (Promega, Madison, Wis., USA). […] The experiments for each concentration of the test items were done in triplicate wells.

[2] = system: STAT3; assay: STAT3 activity in HeLa-STAT3-luc cells stimulated with IFN-γ (luciferase); settings: +IFNγ 25 U/ml
Description: HeLa-STAT3-luc cells were stably transfected with the plasmid 4×M67 pTATA TK-Luc. Cells (20×10^3 cells/ml) were seeded 96-well plate the day before the assay. Then the cells were treated with the test substances for […] and then stimulated with IFN-γ 25 IU/ml. After 6 h, the cells were washed twice with PBS and lysed in […] lysis buffer containing 25 mM Tris-phosphate (pH 7.8), 8 mM MgCl2, 1 mM DTT, 1% Triton X-100, and 7% glycerol during […] at RT in a horizontal shaker. Luciferase activity was measured using GloMax 96 microplate luminometer (Promega) following the instructions of the luciferase assay kit (Promega, Madison, Wis., USA). […] The experiments for each concentration of the test items were done in triplicate wells.

[3] = system: HaCaT cells; assay: Glucose uptake (2-NBDG) in HaCaT keratinocytes; settings: +2NBDG 50 μM, 24 h
Description: HaCaT cells (5×10^4) were seeded in 96-well black plates and incubated for 24 h. Then, medium was removed and the cells cultivated in OptiMEM, labeled with 50 μM 2-NBDG (2-[N-(7-nitrobenz-2-oxa-1,3-diazol-4-yl) amino]-2-deoxy-D-glucose and treated with the test substances or the positive control, Rosiglitazone, for 24 h. Medium was removed and the wells were carefully washed with PBS and incubated in PBS (100 μl/well). Finally the fluorescence was measured using the Incucyte FLR software, the data were analyzed by the total green object integrated intensity (GCU×μm2×Well) of the imaging system IncuCyte HD (Essen BioScience). The fluorescence of Rosiglitazone is taken as 100% of glucose uptake, and the glucose uptake was calculated as (% Glucose uptake)=100(T−B)/(R−B), where T (treated) is the fluorescence of test substance-treated cells, B (Basal) is the fluorescence of 2-NBDG cells and […] is the fluorescence of cells treated with Rosiglitazone.

Structure (SMILES) | % Activation (NF-κB; TNFα = 100%) ([1]; 10 μM) | RLU 1 ([1]; 10 μM) | RLU 2 ([1]; 10 μM) | RLU 3 ([1]; 10 μM) | RLU MEAN ([1]; 10 μM) | RLU specific ([1]; 10 μM) | % Activation (NF-κB; TNFα = 100%) ([1]; 25 μM) | RLU 1 ([1]; 25 μM) | RLU 2 ([1]; 25 μM) | RLU 3 ([1]; 25 μM) | RLU MEAN ([1]; 25 μM) | RLU specific ([1]; 25 μM) | % Activation (STAT3; IFNγ = 100%) ([2]; 25 μM) | RLU 1 ([2]; 25 μM) | RLU 2 ([2]; 25 μM) | RLU 3 ([2]; 25 μM) | RLU MEAN ([2]; 25 μM) | RLU specific ([2]; 25 μM) | RLU 1 ([2]; 50 μM) | RLU 2 ([2]; 50 μM) | further results
COc1ccc(-c2cc(=O)c3c(O)cc(O)cc3o2)cc1O [Diosmetin] | 294.7% | 398660 RLU | 411390 RLU | 412940 RLU | 407663 RLU | 384300 RLU | 327.9% | 448530 RLU | 452660 RLU | 451610 RLU | 450933 RLU | 427570 RLU | 111.00% | 16337 RLU | 14303 RLU | 17066 RLU | 15902 RLU | 13895 RLU | 9189 RLU | 7751 RLU | RLU 3 ([2]; 50 μM): 7857 RLU; RLU MEAN ([2]; 50 μM): 8266 RLU; RLU specific ([2]; 50 μM): 6258 RLU; activity at 50 µM ([2]; 6 h, 50 μM, read-out: % Activation (STAT3; IFNγ = 100%)): 50%
CC1O[C@@H](Oc2cc(O[C@@H]3OC(C)[C@H](O)C(O)C3O)c3c(=O)cc(-c4ccccc4)oc3c2)C(O)C(O)[C@H]1O (stereo partly drawn) [CR1, Chrysin-di-5,7-O-α-L-rhamnoside] | 109.9% | 157870 RLU | 169000 RLU | 173010 RLU | 166627 RLU | 143263 RLU | 120.8% | 175140 RLU | 183630 RLU | 183960 RLU | 180910 RLU | 157547 RLU | – | – | – | – | – | – | – | – | % Glucose uptake (Rosiglitazone = 100%) ([3]; 25 μM): 48.3%; Mean (fluorescence) ([3]; 25 μM): 426161; Measure 1 (fluorescence) ([3]; 25 μM): 291406; Measure 2 (fluorescence) ([3]; 25 μM): 358114; Measure 3 (fluorescence) ([3]; 25 μM): 628963; RFU specific ([3]; 25 μM): 419847 RFU; % Glucose uptake (Rosiglitazone = 100%) ([3]; 50 μM): 52.6%; Mean (fluorescence) ([3]; 50 μM): 463245; Measure 1 (fluorescence) ([3]; 50 μM): 619992; Measure 2 (fluorescence) ([3]; 50 μM): 595330; Measure 3 (fluorescence) ([3]; 50 μM): 174412; RFU specific ([3]; 50 μM): 456931 RFU
COc1ccc(-c2coc3cc(O[C@@H]4O[C@@H](C)[C@H](O)[C@@H](O)[C@H]4O)cc(O[C@@H]4O[C@@H](C)[C@H](O)[C@@H](O)[C@H]4O)c3c2=O)cc1 [BR1, Biochanin A-5,7-di-O-α-L-rhamnoside] | 170.3% | 259120 RLU | 247590 RLU | 229500 RLU | 245403 RLU | 222040 RLU | 141.4% | 211660 RLU | 208010 RLU | 203720 RLU | 207797 RLU | 184433 RLU | 110.41% | 8162 RLU | 12819 RLU | 11157 RLU | 10713 RLU | 8878 RLU | 12336 RLU | 11620 RLU | % Activation (STAT3; IFNγ = 100%) ([2]; 50 μM): 126.67%; RLU 3 ([2]; 50 μM): 12104 RLU; RLU MEAN ([2]; 50 μM): 12020 RLU; RLU specific ([2]; 50 μM): 10185 RLU; % Glucose uptake (Rosiglitazone = 100%) ([3]; 25 μM): 44.0%; Mean (fluorescence) ([3]; 25 μM): 597246; Measure 1 (fluorescence) ([3]; 25 μM): 730362; Measure 2 (fluorescence) ([3]; 25 μM): 661244; Measure 3 (fluorescence) ([3]; 25 μM): 400131; RFU specific ([3]; 25 μM): 564160 RFU; % Glucose uptake (Rosiglitazone = 100%) ([3]; 50 μM): 56.4%; Mean (fluorescence) ([3]; 50 μM): 756509; Measure 1 (fluorescence) ([3]; 50 μM): 899548; Measure 2 (fluorescence) ([3]; 50 μM): 626443; Measure 3 (fluorescence) ([3]; 50 μM): 743535; RFU specific ([3]; 50 μM): 723423 RFU
CC1O[C@@H](Oc2cc(O)cc3oc(-c4ccccc4)cc(=O)c23)C(O)C(O)[C@H]1O (stereo partly drawn) [CR2, Chrysin-5-O-α-L-rhamnoside] | 101.7% | 156600 RLU | 160140 RLU | 151070 RLU | 155937 RLU | 132573 RLU | – | 170390 RLU | 179220 RLU | 163490 RLU | 171033 RLU | 147670 RLU | – | – | – | – | – | – | – | – | activity at 25 µM ([1]; 6 h, 25 μM, read-out: % Activation (NF-κB; TNFα = 100%)): 113%; % Glucose uptake (Rosiglitazone = 100%) ([3]; 25 μM): 47.2%; Mean (fluorescence) ([3]; 25 μM): 416681; Measure 1 (fluorescence) ([3]; 25 μM): 427937; Measure 2 (fluorescence) ([3]; 25 μM): 431593; Measure 3 (fluorescence) ([3]; 25 μM): 390512; RFU specific ([3]; 25 μM): 410367 RFU; % Glucose uptake (Rosiglitazone = 100%) ([3]; 50 μM): 106.5%; Mean (fluorescence) ([3]; 50 μM): 931673; Measure 1 (fluorescence) ([3]; 50 μM): 771478; Measure 2 (fluorescence) ([3]; 50 μM): 1100390; Measure 3 (fluorescence) ([3]; 50 μM): 923151; RFU specific ([3]; 50 μM): 925359 RFU
COc1cc(C2Oc3cc([C@H]4Oc5cc(O)cc(O)c5C(=O)[C@@H]4O)ccc3OC2CO)ccc1O (stereo partly drawn) [Silibinin] | – | – | – | – | – | – | – | – | – | – | – | – | 121.32% | 12389 RLU | 11170 RLU | 11210 RLU | 11590 RLU | 9755 RLU | 12157 RLU | 11885 RLU | % Activation (STAT3; IFNγ = 100%) ([2]; 50 μM): 120.55%; RLU 3 ([2]; 50 μM): 10540 RLU; RLU MEAN ([2]; 50 μM): 11527 RLU; RLU specific ([2]; 50 μM): 9692 RLU
O=c1cc(-c2ccccc2)oc2cc(O)cc(O)c12 [Chrysin] | 313.0% | 301630 RLU | 274240 RLU | 303950 RLU | 293273 RLU | 256010 RLU | 293.5% | 273410 RLU | 272580 RLU | 285980 RLU | 277323 RLU | 240060 RLU | 164.78% | 28031 RLU | 22367 RLU | 17504 RLU | 22634 RLU | 20627 RLU | 27912 RLU | 3531 RLU | % Activation (STAT3; IFNγ = 100%) ([2]; 50 μM): 111.11%; RLU 3 ([2]; 50 μM): 16304 RLU; RLU MEAN ([2]; 50 μM): 15916 RLU; RLU specific ([2]; 50 μM): 13908 RLU
COc1ccc(-c2coc3cc(O)cc(O[C@@H]4O[C@@H](C)[C@H](O)[C@@H](O)[C@H]4O)c3c2=O)cc1 [BR2, Biochanin A 5-O-α-L-rhamnoside] | 138.3% | 205410 RLU | 202640 RLU | 202940 RLU | 203663 RLU | 180300 RLU | 163.2% | 237390 RLU | 235850 RLU | 235350 RLU | 236197 RLU | 212833 RLU | 109.76% | 11157 RLU | 10163 RLU | 10660 RLU | 10660 RLU | 8825 RLU | 7983 RLU | 9023 RLU | % Activation (STAT3; IFNγ = 100%) ([2]; 50 μM): 93.74%; RLU 3 ([2]; 50 μM): 11110 RLU; RLU MEAN ([2]; 50 μM): 9372 RLU; RLU specific ([2]; 50 μM): 7537 RLU; % Glucose uptake (Rosiglitazone = 100%) ([3]; 25 μM): 77.5%; Mean (fluorescence) ([3]; 25 μM): 1027608; Measure 1 (fluorescence) ([3]; 25 μM): 998132; Measure 2 (fluorescence) ([3]; 25 μM): 1149619; Measure 3 (fluorescence) ([3]; 25 μM): 935073; RFU specific ([3]; 25 μM): 994522 RFU; % Glucose uptake (Rosiglitazone = 100%) ([3]; 50 μM): 129.0%; Mean (fluorescence) ([3]; 50 μM): 1688513; Measure 1 (fluorescence) ([3]; 50 μM): 1657600; Measure 2 (fluorescence) ([3]; 50 μM): 1788604; Measure 3 (fluorescence) ([3]; 50 μM): 1619334; RFU specific ([3]; 50 μM): 1655427 RFU
